In patent publication US20180148452A1, “TOLL-LIKE RECEPTOR-7 AGONIST” (MEDSHINE DISCOVERY INC., priority 2014, published 2018):
Structures can show the parent of a compound that is named as a salt.

Legend:
[1] = target: T1, hTLR7 (Homo sapiens, UniProt Q9NYK1); experiment: TLR7 agonist screening protocol in vitro (HEK-Blue-hTLR7 reporter, QUANTI-Blue); assay type: cell-based; conditions: HEK-Blue-hTLR7 cells, 24 hours incubation, alkaline phosphatase OD650
T1 construct: expressed in transfected cells; host or cells: HEK-Blue-hTLR7 cells (HEK293-derived SEAP reporter line)
T1 sequence (Q9NYK1 27-1049): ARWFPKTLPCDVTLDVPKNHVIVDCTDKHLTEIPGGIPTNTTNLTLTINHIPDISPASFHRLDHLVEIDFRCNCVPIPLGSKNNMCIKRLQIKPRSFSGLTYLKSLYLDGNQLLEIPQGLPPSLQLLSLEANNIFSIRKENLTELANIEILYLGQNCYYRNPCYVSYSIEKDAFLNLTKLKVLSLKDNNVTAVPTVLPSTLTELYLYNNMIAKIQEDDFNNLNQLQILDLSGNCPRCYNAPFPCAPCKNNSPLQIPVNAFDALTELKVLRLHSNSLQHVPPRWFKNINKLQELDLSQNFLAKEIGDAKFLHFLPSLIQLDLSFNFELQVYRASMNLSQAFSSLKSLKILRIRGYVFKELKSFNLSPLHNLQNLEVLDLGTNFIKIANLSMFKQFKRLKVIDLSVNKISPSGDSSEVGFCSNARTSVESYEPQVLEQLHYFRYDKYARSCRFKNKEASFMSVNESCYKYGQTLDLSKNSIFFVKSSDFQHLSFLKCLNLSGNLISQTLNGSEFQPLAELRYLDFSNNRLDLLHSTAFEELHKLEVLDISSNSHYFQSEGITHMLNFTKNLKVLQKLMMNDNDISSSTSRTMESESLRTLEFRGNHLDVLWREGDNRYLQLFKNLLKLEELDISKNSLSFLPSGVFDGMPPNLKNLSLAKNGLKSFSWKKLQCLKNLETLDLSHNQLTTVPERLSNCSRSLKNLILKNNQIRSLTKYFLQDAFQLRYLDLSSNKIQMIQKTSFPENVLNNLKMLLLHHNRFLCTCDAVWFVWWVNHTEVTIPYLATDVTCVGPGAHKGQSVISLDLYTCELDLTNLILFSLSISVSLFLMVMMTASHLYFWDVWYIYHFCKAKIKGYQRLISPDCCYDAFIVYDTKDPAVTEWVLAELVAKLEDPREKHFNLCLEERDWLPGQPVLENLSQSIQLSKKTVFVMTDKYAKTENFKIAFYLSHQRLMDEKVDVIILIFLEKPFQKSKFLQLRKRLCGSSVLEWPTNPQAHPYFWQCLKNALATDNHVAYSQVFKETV
Experimental: Test 1: TLR7 Agonist Screening Protocol In Vitro
1. Preparation for 96-well plate: Compounds are 3 folds serial diluted with DMSO by POD, start from 10 mM, 10 concentrations (column 2 to 11, duplicated), 1 μL DMSO per well. Take 1 μL of 5 mM R848 as positive control (column 12) and 1 μL of DMSO as negative control (column 1).
2. Harvest cells and adjust cell suspension to the density of 250,000 cells/ml.
3. 200 μL cells are seeded into the cell culture plate containing compounds with the cell density of 50,000 cells/well, the final DMSO concentration is 0.5%.
4. Incubate the plates containing the cells and compounds at 37° C., 5% CO2 for 24 hours.
5. After 24 hours' incubation, fetch 20 μL supernatant from each well to transfer to another transparent 96-well cell culture plate. Add 180 μL QUANTI-Blue to each well of the cell culture plate containing 20 μL supernatant, and incubate at 37° C., 5% CO2 for 1 hour.
6. After 1 hour, determine alkaline phosphatase levels in 20 μL supernatant by using ELIASA reading at OD650.
7. Data analysis by Prism software, EC50 of each compound was obtained.

[2] = system: Female Balb/c mice; experiment: Induction of IFN-α and TNF-α following intranasal dosing in the mouse; assay type: in vivo; conditions: serum, 2 h after single i.n. dose; for IFN-α Conc. (1 mM): 1 mM (0.1 mpk); for IFN-α Conc. (3 mM) / TNF-α Conc. (3 mM): 3 mM (0.3 mpk); for IFN-α Conc. (10 mM) / TNF-α Conc. (10 mM): 10 mM (1 mpk); for IFN-α Conc. (30 mM) / TNF-α Conc. (30 mM): 30 mM (3 mpk)
Experimental: Test 3: Assay for the Induction of Interferon-α (IFN-α) and Tumor Necrosis Factor-α (TNF-α) Following Intranasal Dosing in the Mouse
Female Balb/c mice (18-20 g) were anesthetized with isoflurane and then administered intranasally (20 μL in total between the nostrils) with compounds dissolved in saline with 0.2% Tween 80. After two hours, mice were euthanased by CO2 inhalation and blood samples were taken by cardiac puncher. Then blood samples were centrifuged and serum was collected. Serum samples were tested by ELISA with appropriate dilution according to the manufacturer's instructions. In this model, compounds could induce different IFN-α/TNF-α levels related to the dose of the compounds, while no IFN-α/TNF-α was detected in vehicle treated controls.

| Compound | EC50 [1] | other results |
| --- | --- | --- |
| CCCCOc1nc(N)c2[nH]c(C#N)c(CCCCCN3CCCCC3)c2n1 [Example 1, 4-Amino-2-butoxy-7-(5-(piperidin-1-yl)pentyl)-5H-pyrrolo[3,2-d]pyrimidine-6-carbonitrile formate] | 1 to 100 nM | IFN-α Conc. (1 mM) [2]: 500 pg/mL; IFN-α Conc. (3 mM) [2]: 4500 pg/mL; TNF-α Conc. (3 mM) [2]: 100 pg/mL; IFN-α Conc. (10 mM) [2]: 7500 pg/mL; TNF-α Conc. (10 mM) [2]: 300 pg/mL; IFN-α Conc. (30 mM) [2]: 7000 pg/mL; TNF-α Conc. (30 mM) [2]: 500 pg/mL |
| CCCCOc1nc(N)c2[nH]c(C#N)c(CCCCCN3CCN(C)CC3=O)c2n1 [Example 11, 4-amino-2-butoxy-7-(5-(4-methyl-2-oxopiperazin-1-yl)pentyl)-5H-pyrrolo[3,2-d]pyrimidine-6-carbonitrile formate] | 100 to 250 nM | – |
| CCCCOc1nc(N)c2[nH]c(C#N)c(CCCCCN3CCCC3C(=O)N(C)C)c2n1 (stereo not shown) [Example 14, 4-amino-2-butoxy-7-(5-(2-(N,N′-dimethylformamido)-pyrrolidin-1-yl)pentyl)-5H-pyrrolo[3,2-d]pyrimidin-6-nitrile formate] | 1 to 100 nM | – |
| CCCCOc1nc(N)c2[nH]c(C#N)c(CCCCCN3CCOCC3)c2n1 [Example 4, 4-amino-2-butoxy-7-(5-morpholin-1-yl)pentyl)-5H-pyrrolo[3,2-d]pyrimidine-6-carbonitrile formate] | 1 to 100 nM | – |
| CCCCOc1nc(N)c2[nH]c(C#N)c(CCCCCN3CCC(F)(F)CC3)c2n1 [Example 9, 4-amino-2-butoxy-7-(5-(4,4′-difluoro-1-piperidinyl)pentyl)-5H-pyrrolo[3,2-d]pyrimidine-6-carbonitrile formate] | 100 to 250 nM | – |
| CCCCOc1nc(N)c2[nH]c(C#N)c(CCCCCN3CCCC3C(=O)N3CCN(C)CC3)c2n1 (stereo not shown) [Example 15, 4-amino-2-butoxy-7-(5-((2-(4-methylpiperazine-1-carbonyl)pyrrolidin-1-yl)pentyl)-5H-pyrrolo[3,2-d]pyrimidine-6-carbonitrile formate] | 100 to 250 nM | – |
| CCCCOc1nc(N)c2[nH]c(C#N)c(CCCCCN3CC4(COC4)C3)c2n1 [Example 5, 7-(5-(2-oxa-6-azaspiro[3.3]heptan-6-yl)pentyl)-4-amino-2-butoxy-5H-pyrrolo[3,2-d]pyrimidine-6-carbonitrile formate] | 1 to 100 nM | – |
| CCCCOc1nc(N)c2[nH]c(C#N)c(CCCCN3CCCCC3)c2n1 [Example 3, 4-amino-2-butoxy-7-(4-(piperidin-1-yl)butyl)-5H-pyrrolo[3,2-d]pyrimidine-6-carbonitrile formate] | 1 to 100 nM | – |
| CCCCOc1nc(N)c2[nH]c(C#N)c(CCCCC3CCCCN3)c2n1 (stereo not shown) [Example 22, 4-amino-2-butoxy-7-(4-(piperidin-2-yl)butyl)-5H-pyrrolo[3,2-d]pyrimidine-6-carbonitrile formate] | 100 to 250 nM | – |
| CCC[C@H](C)Oc1nc(N)c2[nH]c(=O)n(CCCCCN3CCCCC3)c2n1.Cl [GSK-2245035, reference compound] | 1 to 100 nM | IFN-α Conc. (1 mM) [2]: <100 pg/mL; IFN-α Conc. (3 mM) [2]: 1000 pg/mL; TNF-α Conc. (3 mM) [2]: <10 pg/mL; IFN-α Conc. (10 mM) [2]: 3500 pg/mL; TNF-α Conc. (10 mM) [2]: 50 pg/mL; IFN-α Conc. (30 mM) [2]: 4500 pg/mL; TNF-α Conc. (30 mM) [2]: 400 pg/mL |
| CCCCOc1nc(N)c2[nH]c(C#N)c(CCCCC3CCCCN3C(=O)NC)c2n1 (stereo not shown) [Example 23, 4-amino-2-butoxy-7-(4-(1-(1-N-methylcarbonyl)piperidin-2-yl)butyl)-5H-pyrrolo[3,2-d]pyrimidin-6-nitrile] | 100 to 250 nM | – |
| CCCCOc1nc(N)c2[nH]c(C#N)c(CCCCCN(CC)CC)c2n1 [Example 8, 4-amino-2-butoxy-7-(5-(diethylamino)pentyl)-5H-pyrrolo[3,2-d]pyrimidine-6-carbonitrile formate] | 1 to 100 nM | – |
| CCCCOc1nc(N)c2[nH]c(C#N)c(CCCCCN3CCN(C)CC3)c2n1 [Example 6, 4-amino-2-butoxy-7-(5-(4-methylpiperazin-1-yl)pentyl)-5H-pyrrolo[3,2-d]pyrimidine-6-carbonitrile formate] | 1 to 100 nM | – |
| CCCCOc1nc(N)c2[nH]c(C#N)c(CCCCCCN3CCCC3)c2n1 [Example 19, 4-amino-2-butoxy-7-(6-(tetrahydropyrrol-1-yl)hexyl)-5H-pyrrolo[3,2-d]pyrimidine-6-carbonitrile formate] | 1 to 100 nM | – |
| CCCCOc1nc(N)c2[nH]c(C#N)c(CCCCCN3CCCC3C(=O)NCC3CC3)c2n1 (stereo not shown) [Example 16, formate] | 100 to 250 nM | – |
| CCCCOc1nc(N)c2[nH]c(C#N)c(CCCCCN3CCC[C@@H]3C(N)=O)c2n1 [Example 13] | 1 to 100 nM | – |
| CCCCOc1nc(N)c2[nH]c(C#N)c(CCCCCN3CCCC3)c2n1 [Example 20, 4-amino-2-butoxy-7-(5-(tetrahydropyrrol-1-yl)pentyl)-5H-pyrrolo[3,2-d]pyrimidine-6-carbonitrile hydrochloride] | 1 to 100 nM | – |
| CCCCOc1nc(N)c2[nH]c(C#N)c(CCCCCN3CC4CC3CN4C)c2n1 (stereo not shown) [Example 7, 4-amino-2-butoxy-7-(5-(5-methyl-2,5-diazabicyclo[2.2.1]heptan-2-yl)pentyl)-5H-pyrrolo[3,2-d]pyrimidine-6-carbonitrile formate] | 250 to 500 nM | – |
| CCCCOc1nc(N)c2[nH]c(C#N)c(CCCC3CCN(C)CC3)c2n1 [Example 24, 4-amino-2-butoxy-7-(3-(1-methylpiperidin-4-yl)propyl)-5H-pyrrolo[3,2-d]pyrimidine-6-carbonitrile formate] | 1 to 100 nM | – |
| CCCCOc1nc(N)c2[nH]c(C#N)c(CCCCCN3CC4CCC(C3)N4C)c2n1 [Example 21, 4-amino-2-butoxy-7-(5-(8-methyl-3,8-diazabicyclo[3.2.1]octan-3-yl)pentyl)-5H-pyrrolo[3,2-d]pyrimidine-6-carbonitrile formate] | 100 to 250 nM | – |
| CCCCOc1nc(N)c2[nH]c(C#N)c(CCCCCNC(C(N)=O)C(C)C)c2n1 (stereo not shown) [Example 18, 4-amino-2-butoxy-7-(5-((1-formamido-1′-isopropyl)amino)pentyl)-5H-pyrrolo[3,2-d]pyrimidine-6-carbonitrile hydrochloride] | 1 to 100 nM | – |
| CCC[C@H](C)Oc1nc(N)c2[nH]c(C#N)c(CCCCCN3CCCCC3)c2n1 [Example 2, (S)-4-amino-(1-methylbutoxy)-7-(5-(piperidin-1-yl)pentyl)-5H-pyrrolo[3,2-d]pyrimidine-6-carbonitrile formate] | 1 to 100 nM | – |
| CCCCOc1nc(N)c2[nH]c(C#N)c(CCCCCN3CCCCC3C(N)=O)c2n1 (stereo not shown) [Example 17, hydrochloride] | 1 to 100 nM | – |
